{"source": "patent US20180155757A1", "about": "“IDENTIFICATION OF BACTERIA THAT ARE RESISTANT TO CARBAPENEMS BY MEMBRANE IMPERVIOUSNESS” (BIOMÉRIEUX, priority 2015, published 2018)", "assay_type_in_all_cases": "cell-based", "key": {"[1]": {"tested_on": "K. pneumoniae 1104053 (OXA-48 producer)", "assay": "MIC of PMBN", "experimental": "(§1) Likewise, prior to carrying out the discriminating method according to the invention, the PMBN-sensitivity of each of the model strains used was evaluated by means of a method of microdilution in liquid medium.\n(§2) To do this, each of the strains was cultured in Mueller-Hinton broth (MHII-Becton Dickinson®, United States). On inocula containing 2×10^5 CFU/ml, serial doubling dilutions were carried out for the PMBN in order to determine the minimum inhibitory concentrations. The PMBN-sensitivity was read after 18 hours of incubation at 37° C., by addition of 0.2 mg/ml of iodonitrotetrazolium chloride (Sigma-Aldrich®, United States)."}, "E. aerogenes 9203076": {"tested_on": "E. aerogenes 9203076", "assay": "MIC of PMBN", "experimental": "as §1, §2"}, "[2]": {"tested_on": "S. marcescens 1008175 (IMP-1 producer)", "assay": "MIC of PMBN", "experimental": "as §1, §2"}, "C. freundii 0403012": {"tested_on": "C. freundii 0403012", "assay": "MIC of PMBN", "experimental": "as §1, §2"}, "[3]": {"tested_on": "E. coli 1012292 (KPC-2 producer)", "assay": "MIC of PMBN", "experimental": "as §1, §2"}, "[4]": {"tested_on": "E. coli 1008077 (VIM-1 producer)", "assay": "MIC of PMBN", "experimental": "as §1, §2"}, "[5]": {"tested_on": "K. pneumoniae 0901027 (KPC-3 producer)", "assay": "MIC of PMBN", "experimental": "as §1, §2"}, "[6]": {"tested_on": "K. pneumoniae 1012335 (OXA-48 producer)", "assay": "MIC of PMBN", "experimental": "as §1, §2"}, "K. pneumoniae 1204034": {"tested_on": "K. pneumoniae 1204034", "assay": "MIC of PMBN", "experimental": "as §1, §2"}, "[7]": {"tested_on": "K. pneumoniae 1108007 (VIM-1 producer)", "assay": "MIC of PMBN", "experimental": "as §1, §2"}, "E. aerogenes 1204048": {"tested_on": "E. aerogenes 1204048", "assay": "MIC of PMBN", "experimental": "as §1, §2"}, "[8]": {"tested_on": "K. pneumoniae 1108001 (KPC-2 producer)", "assay": "MIC of PMBN", "experimental": "as §1, §2"}, "[9]": {"tested_on": "E. cloacae 0901026 (KPC-2 producer)", "assay": "MIC of PMBN", "experimental": "as §1, §2"}, "E. cloacae 9402034": {"tested_on": "E. cloacae 9402034", "assay": "MIC of PMBN", "experimental": "as §1, §2"}, "K. pneumoniae 1002015": {"tested_on": "K. pneumoniae 1002015", "assay": "MIC of PMBN", "experimental": "as §1, §2"}, "[10]": {"tested_on": "K. pneumoniae 1108002 (KPC-3 producer)", "assay": "MIC of PMBN", "experimental": "as §1, §2"}, "[11]": {"tested_on": "E. cloacae 1008079 (IMP-1 producer)", "assay": "MIC of PMBN", "experimental": "as §1, §2"}, "[12]": {"tested_on": "E. cloacae 1101172 (NDM producer)", "assay": "MIC of PMBN", "experimental": "as §1, §2"}, "E. aerogenes 9306071": {"tested_on": "E. aerogenes 9306071", "assay": "MIC of PMBN", "experimental": "as §1, §2"}, "C. freundii 1204047": {"tested_on": "C. freundii 1204047", "assay": "MIC of PMBN", "experimental": "as §1, §2"}, "[13]": {"tested_on": "E. cloacae 1008073 (VIM-1 producer)", "assay": "MIC of PMBN", "experimental": "as §1, §2"}, "[14]": {"tested_on": "E. coli 0506040 (VIM-1 producer)", "assay": "MIC of PMBN", "experimental": "as §1, §2"}, "[15]": {"tested_on": "K. pneumoniae 0404024 (VIM-1 producer)", "assay": "MIC of PMBN", "experimental": "as §1, §2"}, "E. coli 1204043": {"tested_on": "E. coli 1204043", "assay": "MIC of PMBN", "experimental": "as §1, §2"}, "[16]": {"tested_on": "E. cloacae 1008096 (VIM-1 producer)", "assay": "MIC of PMBN", "experimental": "as §1, §2"}, "E. cloacae 9304026": {"tested_on": "E. cloacae 9304026", "assay": "MIC of PMBN", "experimental": "as §1, §2"}, "[17]": {"tested_on": "Enterobacter aerogenes EA 27", "assay": "MIC of PMBN, microdilution in liquid medium", "experimental": "as §1, §2"}}}
{"substance": "polymyxin B nonapeptide [PMBN]", "values": [{"measurement": "MICPMBN", "setting": "[1]", "result": "MICPMBN = 1024 μg/ml"}, {"measurement": "MICPMBN", "setting": "E. aerogenes 9203076", "result": "MICPMBN = 1024 μg/ml"}, {"measurement": "MICPMBN", "setting": "[2]", "result": "MICPMBN = 1024 μg/ml"}, {"measurement": "MICPMBN", "setting": "C. freundii 0403012", "result": "MICPMBN = 256 μg/ml"}, {"measurement": "MICPMBN", "setting": "[3]", "result": "MICPMBN = 1024 μg/ml"}, {"measurement": "MICPMBN", "setting": "[4]", "result": "MICPMBN = 1024 μg/ml"}, {"measurement": "MICPMBN", "setting": "[5]", "result": "MICPMBN >1024 μg/ml"}, {"measurement": "MICPMBN", "setting": "[6]", "result": "MICPMBN = 1024 μg/ml"}, {"measurement": "MICPMBN", "setting": "K. pneumoniae 1204034", "result": "MICPMBN = 256 ng/ml"}, {"measurement": "MICPMBN", "setting": "[7]", "result": "MICPMBN = 1024 μg/ml"}, {"measurement": "MICPMBN", "setting": "E. aerogenes 1204048", "result": "MICPMBN >1024 μg/ml"}, {"measurement": "MICPMBN", "setting": "[8]", "result": "MICPMBN = 1024 μg/ml"}, {"measurement": "MICPMBN", "setting": "[9]", "result": "MICPMBN = 1024 μg/ml"}, {"measurement": "MICPMBN", "setting": "E. cloacae 9402034", "result": "MICPMBN >1024 μg/ml"}, {"measurement": "MICPMBN", "setting": "K. pneumoniae 1002015", "result": "MICPMBN = 1024 μg/ml"}, {"measurement": "MICPMBN", "setting": "[10]", "result": "MICPMBN >1024 μg/ml"}, {"measurement": "MICPMBN", "setting": "[11]", "result": "MICPMBN >1024 μg/ml"}, {"measurement": "MICPMBN", "setting": "[12]", "result": "MICPMBN = 1024 μg/ml"}, {"measurement": "MICPMBN", "setting": "E. aerogenes 9306071", "result": "MICPMBN = 1024 μg/ml"}, {"measurement": "MICPMBN", "setting": "C. freundii 1204047", "result": "MICPMBN = 1024 μg/ml"}, {"measurement": "MICPMBN", "setting": "[13]", "result": "MICPMBN = 1024 μg/ml"}, {"measurement": "MICPMBN", "setting": "[14]", "result": "MICPMBN = 128 μg/ml"}, {"measurement": "MICPMBN", "setting": "[15]", "result": "MICPMBN >1024 μg/ml"}, {"measurement": "MICPMBN", "setting": "E. coli 1204043", "result": "MICPMBN = 512 μg/ml"}, {"measurement": "MICPMBN", "setting": "[16]", "result": "MICPMBN = 1024 μg/ml"}, {"measurement": "MICPMBN", "setting": "E. cloacae 9304026", "result": "MICPMBN >1024 μg/ml"}, {"measurement": "MICPMBN", "setting": "[17]", "result": "MICPMBN = 1024 μg/ml"}]}
